Test results: publication PMC4125136, “A Novel Dual Allosteric Activation Mechanism of Escherichia coli ADP-Glucose Pyrophosphorylase: The Role of Pyruvate” (PLoS ONE, 2014)
pEC50, pIC50: −log10 of the molar value. Where “and” joins values, the source holds several entries; their conditions need not be identical. Identical values can stand only once. Like-named read-outs stand apart in the source and are kept apart here.

Assays:
[1] = target: T1, E. coli ADP-Glc PPase (Escherichia coli, UniProt P0A6V1); assay: ADP-Glc synthesis assay (Pi formation, Malachite Green) with Hill-equation kinetic characterization; format: biochemical; settings: for pIC50: read-out: I 0.5 for AMP
T1 construct: made in house; host or cells: E. coli BL21 (DE3)
Experimental: Synthesis of ADP-Glc was assayed by following the formation of Pi (after hydrolysis of pyrophosphate by inorganic pyrophosphatase) as previously described. Unless otherwise stated, a 50 µl reaction mixture contained 100 mM HEPES (pH 8.0), 10 mM MgCl2, 1.5 mM ATP, 0.2 mg/ml bovine serum albumin, 0.5 mU/µl yeast inorganic pyrophosphatase, and the given amount of enzyme. Assays were initiated with 1 mM Glc-1P. If mentioned, a given amount of Pyr, Fru-1,6-P2, and/or AMP was also included. After incubation for 10 min at 37°C, addition of Malachite Green reagent terminated the reaction. The complex formed with the released Pi was measured at 630 nm with an ELISA EMax detector (Molecular Devices). Sodium pyrophosphate was used as standard. One unit of enzyme activity was defined as the amount producing of 1 µmol of product in 1 min under the specified conditions.
Data of enzyme activity were plotted versus effector concentration. Kinetic parameters from the Hill equation such as Hill coefficient (n H), maximal velocity (V max), as well as the activator substrate or inhibitor concentrations giving 50% of the maximal activation (A 0.5), velocity (S 0.5), or inhibition (I 0.5), were acquired by fitting the data with a non-linear least-squares algorithm using the program Origin 7.0 (OriginLab). Parameters are the mean of at least three independent sets of data, reproducible within ±10%. Sample standard deviations of the data were calculated from the Hill equation fitting by using the Levenberg–Marquardt method.

[2] = target: T1, E. coli ADP-Glc PPase; settings: cited from earlier work
[3] = tested on: A. tumefaciens ADP-Glc PPase; design: method as in PMID 9721178; settings: cited from earlier work
[4] = F. 50 mM Pyr +150 µM Fru-1,6-P2
[5] = 50 µM AMP and 100 µM Fru-1,6-P2 (Figure 5)

T1 sequence (P0A6V1 whole entry): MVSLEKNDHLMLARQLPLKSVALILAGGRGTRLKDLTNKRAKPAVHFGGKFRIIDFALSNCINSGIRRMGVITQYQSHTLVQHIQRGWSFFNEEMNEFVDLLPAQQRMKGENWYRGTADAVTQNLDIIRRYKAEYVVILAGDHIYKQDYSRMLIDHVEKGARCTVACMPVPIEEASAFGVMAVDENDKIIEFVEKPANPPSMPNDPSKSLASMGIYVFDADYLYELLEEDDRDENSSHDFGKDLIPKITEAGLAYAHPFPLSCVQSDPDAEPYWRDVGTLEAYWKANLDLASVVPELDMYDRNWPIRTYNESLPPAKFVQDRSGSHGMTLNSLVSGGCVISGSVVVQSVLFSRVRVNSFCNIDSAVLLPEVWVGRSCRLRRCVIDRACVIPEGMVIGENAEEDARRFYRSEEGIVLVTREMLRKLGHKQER

With `Nc1ncnc2c1ncn2[C@@H]1O[C@H](COP(=O)(O)O)[C@@H](O)[C@H]1O` [AMP] the “n H of AMP inhibition” value ([1]; 100 µM Fru-1,6-P2, absence of Pyr) was 1.7, the pIC50 ([1]; 100 µM Fru-1,6-P2, absence of Pyr (Figure 4)) was 4.52 and the “remaining activity at maximum inhibition” value ([1]; 100 µM Fru-1,6-P2, both in absence and presence of 20 mM Pyr) was “around 10%”. For the same compound, the “n H of AMP inhibition” value ([1]; 100 µM Fru-1,6-P2, presence of 20 mM Pyr) was 2.4 and the pIC50 ([1]; 100 µM Fru-1,6-P2, presence of 20 mM Pyr (Figure 4)) was 3.96.
In the case of `Nc1ncnc2c1ncn2[C@@H]1O[C@H](COP(=O)(O)OP(=O)(O)OP(=O)(O)O)[C@@H](O)[C@H]1O` [ATP-Mg], the “ATP-Mg S 0.5” value ([1]; A. No effector) was 6.49 ± 0.21 mM, the “ATP-Mg n H” value ([1]; A. No effector) was 1.5 and the “ATP-Mg S 0.5” value ([1]; B. 25 mM Pyr) was 1.67 ± 0.08 mM. For the same compound, the “ATP-Mg n H” value ([1]; B. 25 mM Pyr) was 2.5, the “ATP-Mg S 0.5” value ([1]; C. 50 mM Pyr) was 1.05 ± 0.06 mM and the “ATP-Mg n H” value ([1]; C. 50 mM Pyr) was 2.2. For the same compound, the “ATP-Mg S 0.5” value ([1]; D. 25 mM Pyr +10 µM Fru-1,6-P2) was 0.99 ± 0.07 mM, the “ATP-Mg n H” value ([1]; D. 25 mM Pyr +10 µM Fru-1,6-P2) was 3.6 and the “ATP-Mg S 0.5” value ([1]; E. 10 µM Fru-1,6-P2) was 5.02 ± 0.25 mM. For the same compound, the “ATP-Mg n H” value ([1]; E. 10 µM Fru-1,6-P2) was 2.1, the “ATP-Mg S 0.5” value [1, 4] was 0.37 ± 0.03 mM and the “ATP-Mg n H” value [1, 4] was 2.4. For the same compound, the “ATP-Mg S 0.5” value ([1]; G. 150 µM Fru-1,6-P2) was 1.31 ± 0.09 mM, the “ATP-Mg n H” value ([1]; G. 150 µM Fru-1,6-P2) was 3.2 and the “ATP-Mg S 0.5” value ([1]; I. 2 mM Fru-1,6-P2) was 0.43 ± 0.02 mM. For the same compound, the “ATP-Mg n H” value ([1]; I. 2 mM Fru-1,6-P2) was 2.1, the “ATP-Mg S 0.5” value ([1]; J. 50 mM Pyr +2 mM Fru-1,6-P2) was 0.19 ± 0.02 mM and the “ATP-Mg n H” value ([1]; J. 50 mM Pyr +2 mM Fru-1,6-P2) was 1.4.
For `O=C(COP(=O)(O)O)[C@@H](O)[C@H](O)[C@H](O)COP(=O)(O)O` [Fru-1,6-P2, Fructose-1,6-bisphosphate], the “improvement of apparent affinity of the enzyme for Pyr” value ([1]; 30 µM Fru-1,6-P2 (Figure 1)) was 8.4 fold, the V max ([1]; E. 10 µM Fru-1,6-P2) was 6.21±0.19 U/mg and the V max ([1]; G. 150 µM Fru-1,6-P2) was 63±4 U/mg. The V max ([1]; I. 2 mM Fru-1,6-P2) was 108±6 U/mg, the pEC50 ([1]; absence of Pyr (Figure 3A), read-out: A 0.5 for Fru-1,6-P2) was 3.92 and the pEC50 ([1]; as stated in legend of Figure 5, read-out: A 0.5 for Fru-1,6-P2) was 4.00. The “decrease of Pyr A 0.5” value ([1]; at 50 µM Fru-1,6-P2) was 5 fold, the pEC50 ([1]; presence of 2.5 mM Pyr (Figure 3A), read-out: A 0.5 for Fru-1,6-P2) was 4.15 and the “A 0.5 for Fru-1,6-P2” value [2] was “sub-millimolar range”. The “increase of enzyme activity” value [2] was roughly 50 fold.
With `O=P(O)(O)OC1O[C@H](CO)[C@@H](O)[C@H](O)[C@H]1O` (stereo partly drawn) [Glc-1P] the “Glc-1P S 0.5” value ([1]; A. No effector) was 0.95 ± 0.07 mM, the “Glc-1P n H” value ([1]; A. No effector) was 1.1 and the “Glc-1P S 0.5” value ([1]; B. 25 mM Pyr) was 0.57 ± 0.05 mM. For the same compound, the “Glc-1P n H” value ([1]; B. 25 mM Pyr) was 1.0, the “Glc-1P S 0.5” value ([1]; C. 50 mM Pyr) was 0.37 ± 0.02 mM and the “Glc-1P n H” value ([1]; C. 50 mM Pyr) was 0.9. For the same compound, the “Glc-1P S 0.5” value ([1]; D. 25 mM Pyr +10 µM Fru-1,6-P2) was 0.23 ± 0.02 mM, the “Glc-1P n H” value ([1]; D. 25 mM Pyr +10 µM Fru-1,6-P2) was 1.3 and the “Glc-1P S 0.5” value ([1]; E. 10 µM Fru-1,6-P2) was 0.77 ± 0.04 mM. The “Glc-1P n H” value ([1]; E. 10 µM Fru-1,6-P2) was 1.0, the “Glc-1P S 0.5” value [1, 4] was 0.09 ± 0.01 mM and the “Glc-1P n H” value [1, 4] was 1.1. For the same compound, the “Glc-1P S 0.5” value ([1]; G. 150 µM Fru-1,6-P2) was 0.12 ± 0.01 mM, the “Glc-1P n H” value ([1]; G. 150 µM Fru-1,6-P2) was 1.2 and the “Glc-1P S 0.5” value ([1]; I. 2 mM Fru-1,6-P2) was 0.09 ± 0.01 mM. The “Glc-1P n H” value ([1]; I. 2 mM Fru-1,6-P2) was 1.3, the “Glc-1P S 0.5” value ([1]; J. 50 mM Pyr +2 mM Fru-1,6-P2) was 0.11 ± 0.01 mM and the “Glc-1P n H” value ([1]; J. 50 mM Pyr +2 mM Fru-1,6-P2) was 1.0.
For `Cc1ncc(COP(=O)(O)O)c(C=O)c1O` [PLP, pyridoxal-5′-phosphate], the pEC50 ([1]; absence of Pyr (Figure 3B), read-out: A 0.5 for PLP) was 5.57 and the pEC50 ([1]; presence of 10 mM Pyr (Figure 3B), read-out: A 0.5 for PLP) was 6.00.
For `CC(=O)C(=O)O` [Pyr, pyruvate], the “activation of the partially inhibited enzyme” value [1, 5] was 4 fold, the “nH of Pyr activation” value [1, 5] was 1.2 and the pEC50 ([1]; 50 µM AMP and 100 µM Fru-1,6-P2 (Figure 5), read-out: A 0.5 for Pyr) was 2.56. The “absolute activity (reference for relative activity, Figure 4)” value ([1]; 20 mM Pyr with 100 µM Fru-1,6-P2, control without Pyr 31.2 U/mg) was 61.8 U/mg, the “decrease of apparent affinity for AMP” value ([1]; 20 mM Pyr, 100 µM Fru-1,6-P2) was 3 fold and the “enzyme more active if Pyr was present (relative activities)” value ([1]; 20 mM Pyr, 100 µM Fru-1,6-P2, 0.05–0.15 mM AMP range) was “up to 3 fold”. The “increase of affinity for Glc-1P” value ([1]; 25 mM Pyr combined with 10 µM Fru-1,6-P2, compared to absence of any effector) was 4.1 fold, the “lowering of S 0.5 for ATP” value ([1]; 25 mM Pyr combined with 10 µM Fru-1,6-P2, vs no effector) was 6.6 fold and the “lowering of S 0.5 for Glc-1P” value ([1]; 25 mM Pyr vs no effector) was 1.7 fold. For the same compound, the “reduction of S 0.5 for ATP” value ([1]; 25 mM Pyr vs no effector) was 3.9 fold, the “lowering of S 0.5 for Glc-1P” value ([1]; 50 mM Pyr vs no effector) was 2.6 fold and the “reduction of S 0.5 for ATP” value ([1]; 50 mM Pyr vs no effector) was 6.2 fold. For the same compound, the “increase of enzyme activity” value ([1]; 100 mM Pyr (highest concentration tested), no other effector) was 3.3 fold, the V max ([1]; B. 25 mM Pyr) was 3.93±0.21 U/mg and the V max ([1]; C. 50 mM Pyr) was 5.31±0.19 U/mg. For the same compound, the V max ([1]; D. 25 mM Pyr +10 µM Fru-1,6-P2) was 31±2 U/mg, the V max [1, 4] was 104±5 U/mg and the “A 0.5 for Pyr” value ([1]; Figure 2, at increasing concentrations of Fru-1,6-P2) was “low mM range”. For the same compound, the V max ([1]; J. 50 mM Pyr +2 mM Fru-1,6-P2) was 110±5 U/mg, the “increase in V max by Pyr” value ([1]; Pyr alone) was ~4 fold and 5 fold and the “nH of Pyr activation” value ([1]; absence of any other regulatory effector (Figure 1)) was 1.03. The pEC50 ([1]; absence of any other regulatory effector (Figure 1), read-out: A 0.5 for Pyr) was 1.60, the pEC50 ([1]; at 50 µM Fru-1,6-P2, read-out: A 0.5 for Pyr) was 2.30 and the “maximal activation by Pyr” value ([1]; in presence of 10 µM or 30 µM Fru-1,6-P2 (Figure 1)) was roughly 6 fold. For the same compound, the pEC50 ([1]; presence of 1 µM PLP (data not shown), read-out: A 0.5 for Pyr) was 2.43, the Pyr activation [3] was 5 fold and the pEC50 ([3]; read-out: A 0.5 for Pyr) was 3.89. For the same compound, the pEC50 ([2]; weak activation, read-out: A 0.5 for Pyr) was less than 2.00.
